In ChEMBL document CHEMBL1146667, “Benzodiazepine-based selective inhibitors of mitochondrial F1F0 ATP hydrolase” (Bioorg Med Chem Lett, 2004) one finds IC50 data, which are given here for 23 compounds.

Some results are limits rather than exact numbers.

Assay [1] concerns the target T1, Mitochondrial complex V; ATP synthase (Bos taurus, UniProt P00829+P05630+P05631+P05632). In words: Inhibitory activity against bovine mitochondrial F1F0-ATP synthase. It counts as protein-complex assay.
Assay [2] addresses T1, Mitochondrial complex V; ATP synthase. In words: Inhibitory activity against bovine mitochondrial F1F0-ATP hydrolase. It counts as protein-complex assay.
Assay [3] addresses T2, Cytochrome P450 2C9 (Homo sapiens, UniProt P11712). In words: Inhibitory activity against ccytochrome P450 2C9.
Assay [4] addresses T2, Cytochrome P450 2C9. The assay can be described thus: Inhibitory activity against cytochrome P450 2C9. Format: ADME.

T1 sequence (P05632 whole entry): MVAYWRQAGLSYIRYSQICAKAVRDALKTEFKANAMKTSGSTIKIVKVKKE
T1 sequence (P00829 whole entry): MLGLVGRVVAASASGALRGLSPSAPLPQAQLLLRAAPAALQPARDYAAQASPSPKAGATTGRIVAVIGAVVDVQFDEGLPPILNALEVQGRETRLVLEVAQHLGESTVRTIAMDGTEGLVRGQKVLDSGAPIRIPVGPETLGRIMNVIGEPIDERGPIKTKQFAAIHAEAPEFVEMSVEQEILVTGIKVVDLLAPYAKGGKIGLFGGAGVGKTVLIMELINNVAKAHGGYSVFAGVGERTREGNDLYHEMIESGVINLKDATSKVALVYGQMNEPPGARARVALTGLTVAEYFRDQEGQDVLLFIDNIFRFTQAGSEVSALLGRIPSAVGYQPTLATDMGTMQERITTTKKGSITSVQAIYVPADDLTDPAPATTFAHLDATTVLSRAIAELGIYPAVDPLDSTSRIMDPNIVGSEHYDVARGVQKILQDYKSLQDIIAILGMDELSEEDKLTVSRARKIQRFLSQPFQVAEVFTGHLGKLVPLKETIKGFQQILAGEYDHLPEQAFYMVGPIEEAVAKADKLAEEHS
T1 sequence (P05631 whole entry): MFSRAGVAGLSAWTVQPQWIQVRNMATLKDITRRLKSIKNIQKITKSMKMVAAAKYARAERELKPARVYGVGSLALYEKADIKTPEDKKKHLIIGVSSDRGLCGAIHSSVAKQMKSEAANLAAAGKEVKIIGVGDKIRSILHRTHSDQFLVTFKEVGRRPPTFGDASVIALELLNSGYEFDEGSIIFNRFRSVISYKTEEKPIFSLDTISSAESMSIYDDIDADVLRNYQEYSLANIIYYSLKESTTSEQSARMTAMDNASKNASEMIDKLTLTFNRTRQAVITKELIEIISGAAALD
T1 sequence (P05630 whole entry): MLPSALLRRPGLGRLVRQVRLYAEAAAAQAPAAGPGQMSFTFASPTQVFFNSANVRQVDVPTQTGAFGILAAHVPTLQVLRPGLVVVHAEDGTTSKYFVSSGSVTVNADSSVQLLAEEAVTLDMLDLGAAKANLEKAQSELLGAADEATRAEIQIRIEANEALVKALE
T2 sequence (P11712 whole entry): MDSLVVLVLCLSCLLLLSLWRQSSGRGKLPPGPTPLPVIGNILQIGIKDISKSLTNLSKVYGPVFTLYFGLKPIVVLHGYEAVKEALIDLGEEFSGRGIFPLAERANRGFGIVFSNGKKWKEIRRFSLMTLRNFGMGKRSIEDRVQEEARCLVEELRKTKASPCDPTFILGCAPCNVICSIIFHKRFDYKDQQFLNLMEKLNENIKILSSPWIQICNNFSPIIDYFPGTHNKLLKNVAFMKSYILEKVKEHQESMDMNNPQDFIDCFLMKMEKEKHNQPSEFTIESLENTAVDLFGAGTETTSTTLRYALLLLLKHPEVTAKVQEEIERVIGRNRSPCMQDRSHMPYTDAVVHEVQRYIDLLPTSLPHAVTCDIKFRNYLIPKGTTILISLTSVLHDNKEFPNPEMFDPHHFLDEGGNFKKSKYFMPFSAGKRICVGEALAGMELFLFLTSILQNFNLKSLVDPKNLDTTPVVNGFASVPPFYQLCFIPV

What is called IC50 is the point on the concentration scale where inhibition reaches its midpoint. Read a low IC50 as inhibition by little substance. Consider `CC(C)(C)c1ccc(S(=O)(=O)N2Cc3ccccc3N(Cc3ncc[nH]3)C(CCc3ccccc3)C2)cc1` (centres undefined), for which the results for the IC50 in assay [1] and in assay [2] were over 30000 nM and over 10000 nM, respectively.

`CC(C)(C)c1ccc(S(=O)(=O)N2Cc3ccccc3N(Cc3c[nH]cn3)C(CCc3ccccc3)C2)cc1` (centres undefined): the IC50 against Cytochrome P450 2C9 [3] was 38 nM; in assay [1] it was over 30000 nM; in assay [2], 8 nM.

As to `O=S(=O)(c1cc(Cl)ccc1Cl)N1Cc2ccccc2N(Cc2cnc[nH]2)C(CCc2ccccc2)C1` (centres undefined), the results for the IC50 in assay [1] and in assay [2] were over 30000 nM and 158 nM, respectively.

Take `N#Cc1ccc(S(=O)(=O)N2Cc3ccccc3N(Cc3cnc[nH]3)C(CCc3ccccc3)C2)cc1` (centres undefined): the IC50 in assay [1] is over 30000 nM; in assay [2] it was 255 nM.

For `O=S(=O)(c1ccc(O)cc1)N1Cc2ccccc2N(Cc2cnc[nH]2)C(CCc2ccccc2)C1` (centres undefined), the IC50 is over 30000 nM in assay [1] and 667 nM in assay [2].

On to `O=S(=O)(c1cccc2nonc12)N1Cc2ccccc2N(Cc2cnc[nH]2)C(CCc2ccccc2)C1` (centres undefined), for which the IC50 is over 30000 nM in assay [1] and 1780 nM in assay [2].

For the compound `Cc1nc[nH]c1CN1c2ccccc2CN(Cc2ccc(C(C)(C)C)cc2)CC1CCc1ccccc1` (centres undefined), the IC50 in assay [1] is over 30000 nM; in assay [2] it was 2350 nM.

Turning to `Cc1nc[nH]c1CN1c2ccccc2CN(S(=O)(=O)c2ccc(F)cc2)CC1CCc1ccccc1` (centres undefined), the IC50 was over 30000 nM in assay [1] and 151 nM in assay [2].

For `COc1ccc(S(=O)(=O)N2Cc3ccccc3N(Cc3c[nH]cn3)C(CCc3ccccc3)C2)cc1` (centres undefined), the IC50 in assay [1] is over 30000 nM; in assay [2] it was 77 nM.

`O=S(=O)(N1Cc2ccccc2N(Cc2c[nH]cn2)C(CCc2ccccc2)C1)C(F)(F)F` (centres undefined): the IC50 is over 30000 nM in assay [1] and 77 nM in assay [2].

As for `CC(C)(C)c1ccc(CN2Cc3ccccc3N(Cc3cnc[nH]3)C(CCc3ccccc3)C2)cc1` (centres undefined), the values for the IC50 in assay [1] and in assay [2] were over 30000 nM and 2140 nM, respectively.

For `O=S(=O)(c1ccccc1)N1Cc2ccccc2N(Cc2cnc[nH]2)C(CCc2ccccc2)C1` (centres undefined), the IC50 was over 30000 nM in assay [1] and 282 nM in assay [2].

With `Cc1nc(CN2c3ccccc3CN(S(=O)(=O)c3ccc(F)cc3)CC2CCc2ccccc2)c[nH]1` (centres undefined), the IC50 in assay [1] was over 30000 nM; in assay [2], 9620 nM.

For `Cc1nc[nH]c1CN1c2ccccc2CN(S(=O)(=O)c2ccc(Cl)c(Cl)c2)CC1CCc1ccccc1` (centres undefined), the IC50 is 2000 nM on Cytochrome P450 2C9 [4], over 30000 nM in assay [1] and 22 nM in assay [2].

`O=S(=O)(c1cccc2ccccc12)N1Cc2ccccc2N(Cc2cnc[nH]2)C(CCc2ccccc2)C1` (centres undefined): the IC50 is over 30000 nM in assay [1] and 338 nM in assay [2].

Consider `O=[N+]([O-])c1cccc(S(=O)(=O)N2Cc3ccccc3N(Cc3cnc[nH]3)C(CCc3ccccc3)C2)c1` (centres undefined), for which the values for the IC50 in assay [1] and in assay [2] were over 30000 nM and 423 nM, respectively.

As for `O=S(=O)(Cc1ccccc1)N1Cc2ccccc2N(Cc2c[nH]cn2)C(CCc2ccccc2)C1` (centres undefined), the values for the IC50 in assay [1] and in assay [2] were over 30000 nM and 2410 nM, respectively.

As to `O=S(=O)(c1ccc(F)cc1)N1Cc2ccccc2N(Cc2c[nH]cn2)C(CCc2ccccc2)C1` (centres undefined), the IC50 in assay [1] is over 30000 nM; in assay [2] it was 221 nM.

Regarding `N#Cc1ccc(S(=O)(=O)N2Cc3ccccc3N(Cc3c[nH]cn3)C(CCc3ccccc3)C2)c(Cl)c1` (centres undefined), the IC50 was over 30000 nM in assay [1] and 939 nM in assay [2].

As for `CC(=O)Nc1ccc(S(=O)(=O)N2Cc3ccccc3N(Cc3cnc[nH]3)C(CCc3ccccc3)C2)cc1` (centres undefined), the IC50 in assay [1] is over 30000 nM; in assay [2], 2980 nM.

Turning to `O=S(=O)(c1cccs1)N1Cc2ccccc2N(Cc2cnc[nH]2)C(CCc2ccccc2)C1` (centres undefined), the figures for the IC50 in assay [1] and in assay [2] were over 30000 nM and 636 nM, respectively.

With `Cc1[nH]cnc1CN1c2ccccc2CN(S(=O)(=O)c2ccc(C(C)(C)C)cc2)CC1CCc1ccccc1` (centres undefined), the IC50 was 3000 nM against Cytochrome P450 2C9 [4], over 30000 nM in assay [1] and 77 nM in assay [2].

Turning to `O=S(=O)(c1cccc2cccnc12)N1Cc2ccccc2N(Cc2c[nH]cn2)C(CCc2ccccc2)C1` (centres undefined), the IC50 in assay [1] was over 30000 nM; in assay [2], 2930 nM.
